Experiment [1] deals with hTeloCFID (DNA, i motif) TAACCCTAACCCTAACCCTAACCC
Nature of the experiment: fluorescent intercalator displacement. Particulars: Na+ (10 mM NaH2PO4); pH 5.7; thiazole orange 2 μM displaced.

The subject of experiment [2] is mutTel24FID (DNA, G4) TTTGGGTTAGGGTTAGGGTTAGGGA
Put plainly: fluorescent intercalator displacement. The following applies: K+ (10 mM KH2PO4); pH 5.7; thiazole orange 2 μM displaced.

For experiment [3], the system named is hTeloC (DNA, i motif) CCCTAACCCTAACCCTAACCCT
Put plainly: CD melting. Particulars: Na+ (10 mM sodium phosphate); pH 5.7; 5 equivalents of compound, 10-15 μM DNA.

The test system of experiment [4] is mutTel24 (DNA, G4) TTGGGTTAGGGTTAGGGTTAGGGA
Nature of the experiment: CD melting. Particulars: K+ (10 mM potassium phosphate); pH 5.7; 5 equivalents of compound, 10-15 μM DNA.

Each structure is given as a SMILES string.

Regarding `COc1ccc2cc3[n+](cc2c1OC)CCc1cc2c(cc1-3)OCO2`, the DC50 stood at 1.46 ± 5.88E-03 μM in experiment [1] and 1.26 ± 7.22E-03 μM in experiment [2]. Further, the ΔT1/2 in experiment [3] is -0.8 ± 0.5 °C; in experiment [4], “+12.4 ± 0.5 °C”.
For `O=C1c2c(O)ccc(O)c2C(=O)c2c(NCCNCCO)ccc(NCCNCCO)c21`, in that order: 1.34 ± 6.99E-03 μM, 0.95 ± 6.07E-03 μM, -9.9 ± 0.5 °C and “+4.5 ± 0.5 °C”.
As to `C[n+]1cc(NC(=O)c2ccc3ccc4ccc(C(=O)Nc5cc6ccccc6[n+](C)c5)nc4c3n2)cc2ccccc21`, the figures for the DC50 in experiment [1] and in experiment [2] were 0.95 ± 3.79E-03 μM and 0.39 ± 1.42E-03 μM, respectively. In addition, the ΔT1/2 in experiment [3] was -6.8 ± 0.5 °C; in experiment [4] it was “+14.4 ± 0.5 °C”.
With `Cc1cc2c3c([n+](C)c4ccc(F)cc4c3c1)-c1cc(F)ccc1N2C`, the ΔT1/2 in experiment [3] is -0.3 ± 0.5 °C; in experiment [4], “+20.6 ± 0.5 °C”.
`CN(C)c1ccc(Nc2c3ccc(NC(=O)CCN4CCCC4)cc3nc3cc(NC(=O)CCN4CCCC4)ccc23)cc1`: the DC50 in experiment [1] turned out to be 0.87 ± 8.08E-04 μM; in experiment [2], 0.50 ± 1.95E-03 μM. For the same compound, the results for the ΔT1/2 in experiment [3] and in experiment [4] were -9.2 ± 0.5 °C and “+8.9 ± 0.5 °C”, respectively.
As for `NCCOc1cc(C(=O)Nc2cc(OCCN)c3ccccc3n2)nc(C(=O)Nc2cc(OCCN)c3ccccc3n2)c1`, the DC50 turned out to be 18.02 ± 5.89E-02 μM in experiment [1] and 9.42 ± 3.90E-02 μM in experiment [2]. Moreover, the ΔT1/2 result in experiment [3] is “+0.8 ± 0.5 °C”; in experiment [4], “+8.8 ± 0.5 °C”.

Values taken from article PMC6066642 (2018).
